Reference: patent US20230278957A1, “TREX1 INHIBITORS AND USES THEREOF” (WAKE FOREST UNIVERSITY HEALTH SCIENCES, priority 2020, published 2023)
Like-named read-outs stand apart in the source and are kept apart here.

Assays:
[1] = target: T1, recombinant hTREX1(1-242)WT (hT1) (Homo sapiens, UniProt Q9NSU2); assay: fluorescence-based exonuclease assay, hTREX1 IC50 and HTS; assay type: biochemical
T1 construct: recombinant hTREX1(1-242)^WT
T1 sequence (Q9NSU2 1-242): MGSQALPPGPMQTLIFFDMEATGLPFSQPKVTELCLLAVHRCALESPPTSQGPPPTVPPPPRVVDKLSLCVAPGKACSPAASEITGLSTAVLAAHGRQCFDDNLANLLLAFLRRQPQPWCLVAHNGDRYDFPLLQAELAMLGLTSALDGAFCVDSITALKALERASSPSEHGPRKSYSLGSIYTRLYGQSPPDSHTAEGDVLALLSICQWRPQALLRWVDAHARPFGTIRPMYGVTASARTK
Procedure: FIG. 1: Determining IC50 of Candidate Compounds. […] Standard time-course reactions were prepared in 150 µL volumes containing vehicle or indicated concentrations of inhibitor (Panel A= 0.1-10 µM; Panel C= 1-50 µM), incubated 1 hr at room temperature, and 20 µL samples of each reaction taken at time-points of 0, 5, 10, 20, 30, 45, & 60 minutes and quenched in 20 µL of 15X SYBR Green. Fluorescence was measured, and fluorescence versus time plots were normalized to maximal initial fluorescence and background fluorescence. Plots were fitted with nonlinear regression, then initial velocities of each reaction interpolated and normalized to vehicle-only control reactions to give percent activity. Plots of inhibitor concentration versus percent activity were fit with nonlinear regression to interpolate compound IC50. Plots were generated in Prism (GraphPad) and combined in PowerPoint. Active compounds had IC50 determined in at least three separate experiments. Panels E-F: Gel Assay Validation of Hit Compound IC50. Several hit compounds, including those shown, had their IC50 confirmed via gel assay to validate efficacy of the fluorescence-based biochemical assay. Results of the gel and fluorescence assays were in agreement for all compounds tested. Standard time-course reactions containing nicked plasmid were prepared in 150 µL volumes with the indicated concentrations of inhibitor, and incubated at room temperature. Reaction samples were taken at indicated times, quenched, dried in vacuo, resuspended, then visualized by agarose gel electrophoresis. Control lanes containing supercoiled dsDNA plasmid (‘Plasmid’) and undegraded nicked dsDNA plasmid (‘Nicked’) are included. Low-MW residual bands are ssDNA plasmid leftover from TREX1 exonuclease activity.
We altered a reported fluorescence-based exonuclease assay^17,23 for the purposes of HTS. The assay parameters were optimized to limit materials use and maximize the dynamic range of the assay readout. We used this assay to perform a HTS of the three mentioned libraries against recombinant hTREX1(1-242)^WT, hereafter abbreviated as ‘hT1’. In the case of all libraries, compounds eliciting ≤50% activity at their indicated screening concentrations were identified as ‘candidates’.
The biochemical assay used for HTS was also applied to determining candidate IC50. Briefly, time-course reactions were performed for a range of concentrations for each candidate, and plots of fluorescence vs time were normalized to the initial fluorescence of the reaction and the plate-wide background fluorescence. This normalization helped address compounds with inherent effects on the fluorescent readout. Initial velocities were calculated from normalized plots and used to calculate percent activities relative to vehicle-only control reactions. Standard dose-response curves were then constructed to interpolate candidate IC50. […] Candidates that initially tested with IC50 ≤100 µM had their IC50 redetermined in two additional, independent experiments. […] To validate the efficacy of the fluorescence-based assay at determining IC50, several of the hit compounds had their IC50 confirmed using a gel assay previously described by our lab^23. Briefly, a dsDNA plasmid is nicked, the substrate is incubated with TREX1 which degrades off (partially or completely) the nicked strand, and the reaction is quenched in ethanol, dried in vacuo, and visualized via agarose gel electrophoresis. Example data of these validation assays is provided (FIG. 1, Panels E-F).

[2] = target: T2, TREX1 (Homo sapiens, UniProt Q9NSU2); assay: gel-based ssDNA degradation assay, inhibition kinetics; assay type: biochemical; settings: 15 nM or 515 nM FAM-labeled 30-mer oligo
T2 sequence (Q9NSU2 1-242): T1 sequence (Q9NSU2 1-242)
Procedure: Reactions are incubated at room temperature for 20 min, quenched, dried in vacuo, resuspended, and visualized on a urea-polyacrylamide gel. Initial velocities of each reaction are calculated via densitometric analysis of the gel, and then normalized to vehicle control reactions to calculate percent activities. Dose-response plots are fitted with nonlinear regression to interpolate IC50.

Structure (SMILES): O=C1c2ccccc2C(=O)c2c1cc(S(=O)(=O)O)c(O)c2O [TIM009]
- IC50 ([1]; experiment 1, read-out: IC50 #1): 0.3 µM
- IC50 ([1]; experiment 2, read-out: IC50 #2): 1.1 µM
- IC50 ([1]; experiment 3, read-out: IC50 #3): 1.5 µM
- IC50 ([1]; median of three independent experiments, read-out: Median IC50): 1.1 µM
- mechanism of inhibition classification [2]: mixed inhibitor
